The source of these data is patent publication US20080221017A1, “Pharmaceutical or cosmetic composition and use of a PKC inhibitor with an MMP inhibitor for inhibiting langerhans cell migration” (Laboratoires Expanscience, priority 2000, published 2008).

This test has as its system Langerhans cells (LCs). Nature of the test: Migration of LCs through Matrigel in a two-compartment culture chamber (DNSB-sensitized). The format is cell-based, human. Conditions: for LC migration index: 18 h at 37° C., control cells fixed at 1. The protocol: Suspensions of epidermal cells were obtained by enzyme treatment (0.05% trypsin, for 18 h at +4° C.) of fragments of normal human skin derived from plastic surgery.
D-sphingosine was diluted in ethanol so as to obtain a stock solution at 5×10^−3 M. The D-sphingosine was used at a concentration of 2.5 μM, the dilution carried out in RPMI containing 1% of bovine serum albumin (RPMI-BSA).
A peptide extract of lupin was used as MMP inhibitor. It is the peptide extract LU105 from Laboratoires Pharmascience.
The cells were pre-incubated at 37° C. for 60 min in the presence of LU105, before adding to the medium the hapten DNSB as sensitizing agent.
As sensitizing agent, DNSB (Sigma Aldrich) was used, the soluble form of DNCB (dinitrochlorobenzene), and was solubilized in RPMI-BSA and used at a concentration of 50 μM.
A two-compartment culture chamber system (Falcon, Becton Dickinson, France) was used. The upper compartment is separated from the lower compartment by a membrane with a porosity of 8 μm, onto which are deposited 50 μg/cm^2 of Matrigel. The membrane is then covered with proteins, forming a film equivalent to a basal membrane (laminin, collagen IV, nidogen, entactin, heparan sulfate proteoglycans). The cells taken up in the RPMI-BSA medium alone or in the presence of the various products are placed in the upper compartment. Normal human fibroblast culture supernatant is added to the lower compartment. After incubation for 18 h at 37° C., the number of living cells which have crossed the Matrigel and are in the lower compartment is counted under a microscope (the LCs are easily identifiable by their dendritic shape). Each assay is carried out in triplicate.

Regarding `CCCCCCCCCCCCC/C=C/[C@@H](O)[C@@H](N)CO` (relative stereo) [D-sphingosine, D-erythro-1,3-dihydroxy-2-amino-4-trans-octadecene], where the note is “D-sphingosine 2.5 μM”, the “effect on the LC migration induced by DNSB (in words)” value is given as “significantly inhibits”. Further, under “DNSB+D-sphingosine (2.5 μM)”, the LC migration index worked out at 1.15.

Take `O=[N+]([O-])c1ccc(S(=O)(=O)O)c([N+](=O)[O-])c1` [DNSB, reference compound]: the LC migration index (cells sensitized with the hapten DNSB (50 μM) alone) came to 1.61. In addition, for the setting “treatment with the hapten DNSB alone”, the “increase of LC migration compared to the normal unstimulated cells (control cells)” value was found to be 61%.
